In data set [1] the test system is liver cancer cells (HepG2). Description: growth of liver cancer cells (HepG2) over time as a function of xanthohumol dosage (FIG. 5). The data set is classed as cell-based. Particulars: HepG2, increasing concentrations of xanthohumol, pure form (>98%).
The test system of data set [2] is Collagen Type I (Coll-I) mRNA. Description: hepatic Coll-I mRNA expression in high fat diet mouse study (FIG. 17). The data set is classed as in vivo. Particulars: 500 mg/kgBW, 20 weeks. From the text: (§1) In vivo studies correlate with the in vitro studies. FIGS. 13-18 show comparative graphs of in vivo experimental data showing the effectiveness of xanthohumol when eating a high fat diet. The experiments involved using male C57BL/6N mice purchased from Charles River Laboratories (Sulzfeld, Germany). After two weeks of acclimatization, the mice were fed either standard diet (CTR), standard diet with xanthohumol (XN), high fat diet without providing xanthohumol (HFD), or high fat diet and xanthohumol (HFD+XN). High fat diet in the experiments included a NASH-inducing diet which includes sucrose, cholesterol, and fats rich in saturated fatty acids. In detail, the high fat diet included pork lard (15%), beef tallow (15%), palmitic acid (4%), stearic acid (4%), cholesterol (0.2%), and sucrose (30%). The feeding lasted for 20 weeks. Each experimental group had six mice. The XN and HFD+XN mice were provided with 500 mg of xanthohumol per kg of body weight (kgBW).
(§2) FIGS. 17 and 18 show charts of the detected measurement of hepatic mRNA expressions of Collagen Type I (Coll-I) and profibrogenic factor tissue inhibitor of metalloproteinases 1 (TIMP-1), respectively, of the mice from the experiments (*: p<0.05; normalized so that CTR is set to 1). These methodologies are established markers detecting hepatic fibrosis (e.g., fibrosis of the liver). […]

The subject of the next data set is liver cells. The data set is described as follows: in vitro tests of fat accumulation (steatosis) in liver cells. The data set is classed as cell-based. From the text:
Another effective method of preventing NASH 102 can be performed by inhibiting inflammation 108 of the liver even when eating a high fat diet. Another effective method of preventing NASH 102 can be performed by inhibiting fibrosis 110 of the liver even when eating a high fat diet. […] Inhibition of fat accumulation, inflammation, and/or fibrosis can also be an effective treatment for slowing down or preventing further progression of the liver disease state (including NASH). […] Inhibition of the reception of fatty acids into liver cells was determined in vitro tests and in vivo experiments.

Data set [3] has as its system activated hepatic stellate cells. Description: destruction (LDH) of activated hepatic stellate cells (FIG. 8). It is filed as cell-based. Particulars: increasing dosage of xanthohumol.
The subject of data set [4] is liver cells infected with hepatitis C (HUH7 HCV replicon). The data set is described as follows: efficacy on liver cells infected with hepatitis C vs non-infected liver cells (FIGS. 2 and 3). It is filed as cell-based. From the text: Thus, use of the invention allows a targeted therapy for reduction or elimination of liver cells infected with the virus.
The test system of data set [5] is proinflammatory cytokine tumor necrosis factor (TNF) mRNA. The data set is described as follows: hepatic TNF mRNA expression in high fat diet mouse study (FIG. 16). It is filed as in vivo. The note with it: 500 mg/kgBW, 20 weeks.
Text: as §1
The TNF measurement is an indicator of inflammation in the liver. The mice that ate high fat diet (HFD) had the highest level of TNF mRNA. […] The reduction was by more than 50% of the HFD mice, such that the TNF mRNA of the HFD+XN mice had nearly the same TNF mRNA level as the control mice (CTR). […]

In data set [6] the test system is tissue inhibitor of metalloproteinases 1 (TIMP-1) mRNA. Description: hepatic TIMP-1 mRNA expression in high fat diet mouse study (FIG. 18). The data set is classed as in vivo. Particulars: 500 mg/kgBW, 20 weeks.
Text: as §1, §2

In a further data set the test system is hepatic stellate cells. Description: transformation of quiescent hepatic stellate cells to activated hepatic stellate cells (FIGS. 6 and 7). It is filed as cell-based. The note with it: hepatic stellate cell activation, increasing dosage of xanthohumol. From the text:
FIGS. 6 and 7 illustrate the effect of addition of xanthohumol for the prevention of transformation of the body's own physiologically “quiescent” (non-activated) hepatic stellate cells to activated hepatic stellate cells.
FIGS. 6 and 7 illustrate the effect of addition of xanthohumol for the prevention of transformation of the body's own, physiologically “quiescent” (non-activated) hepatic stellate cells to activated hepatic stellate cells, which are responsible for scarring of the liver in cirrhosis of the liver.

A further data set deals with male C57BL/6N mice. Description: high fat diet (NASH-inducing diet) feeding study in mice, 20 weeks (FIGS. 13-15). It is filed as in vivo. The note with it: 500 mg/kgBW.
Text: as §1

[7] abbreviates: standard diet with xanthohumol (XN), mice.
Where [8] appears, read: standard diet with xanthohumol (XN).

The structures appear in SMILES notation.

On to `COc1cc(O)c(CC=C(C)C)c(O)c1C(=O)/C=C/c1ccc(O)cc1` [xanthohumol], for which, in data set [1], the “growth of the cancer cells” value was “progressively inhibited”. Moreover, the “hepatic Coll-I mRNA compared to HFD mice” value in [2] (HFD+XN) is listed as “substantial reductions”. For the same molecule, in data set [2] (setting [7]), the “hepatic Coll-I mRNA level” value is given as “about the same as the control mice”. For the same molecule, the “viability of the liver cells” value in the data set on liver cells (in vitro) is “does not affect the viability”. Further, the “reception of fatty acids into liver cells (formation of steatosis)” value with liver cells (in vitro tests and in vivo experiments) is listed as “directly inhibits”. Also, the “fatty degeneration of liver cells” value in the data set with liver cells (in vitro, increased amount of xanthohumol) is given as “lessens fatty degeneration”. In addition, the “destruction (LDH) of activated hepatic stellate cells” value in [3] is on record as “increased effect of destruction”. Also, in [4] (healthy liver cells left undamaged), the “destruction of liver cells affected by the virus vs healthy liver cells” value is given as “selective destruction”. For the same molecule, in data set [4] (hepatitis B and C viral damage to the liver), the “replication of the virus” value is “inhibit replication of the virus”. Besides, the “reduction of TNF mRNA compared to HFD mice” value in data set [5] (HFD+XN) is given as “more than 50%”. Besides, in data set [5] (setting [7]), the “TNF mRNA level” value was “lowest detected levels”. Moreover, the “hepatic TIMP-1 mRNA compared to HFD mice” value in [6] (HFD+XN) is “substantial reductions”. Besides, the “hepatic TIMP-1 mRNA level” value in data set [6] (setting [7]) is on record as “about the same as the control mice”. The “formation of scar tissue” value in the data set with hepatic stellate cells is reported as “increasingly suppressed”. Also, in the data set with male C57BL/6N mice (HFD+XN), the “reduction of ALT level compared to HFD mice” value is on record as approximately 50% and the “reduction of hepatic TG (mg(TG)/mg(protein)) compared to high fat diet without xanthohumol” value is on record as “more than 50%”. For the same molecule, in the data set with male C57BL/6N mice (setting [8]), the ALT level entry was “lowest detected levels” and the “hepatic TG (mg(TG)/mg(protein)) level” value was “lowest detected levels”.

(Values after US20140066519A1, “USE OF XANTHOHUMOL AND/OR ISOXANTHOHUMOL AS AN AGENT FOR PREVENTING AND/OR COMBATING LIVER DISEASES” (FLAXAN GMBH & CO. KG, priority 2006, published 2014).)
